Measurements from ChEMBL document CHEMBL1123046, “11C-labeled 4-isopropylantipyrine: preparation and biological evaluation as a blood flow tracer in positron emission tomography (PET)” (1985).

Tests used:
Rattus norvegicus [1] = species on record: Rattus norvegicus; test: Compound was evaluated for the measurement of Cerebral blood flow in nucleus ruber of Rats (normocapnia); type: functional, Brain
Rattus norvegicus [2] = species on record: Rattus norvegicus; test: Compound was evaluated for the measurement of Cerebral blood flow in superior coliculus of Rats (hypercapnia); type: functional, Brain
Rattus norvegicus [3] = species on record: Rattus norvegicus; test: Compound was evaluated for the measurement of Cerebral blood flow in septal nucleus of Rats (normocapnia); type: functional, Brain
Rattus norvegicus [4] = species on record: Rattus norvegicus; test: Compound was evaluated for the measurement of Cerebral blood flow in hippocampus cortex of Rats (hypercapnia); type: functional
Rattus norvegicus [5] = species on record: Rattus norvegicus; test: Compound was evaluated for the measurement of Cerebral blood flow in globus pallidus of Rats (normocapnia); type: functional
Rattus norvegicus [6] = species on record: Rattus norvegicus; test: Compound was evaluated for the measurement of Cerebral blood flow in substantia nigra of Rats (hypercapnia); type: functional
Rattus norvegicus [7] = species on record: Rattus norvegicus; test: Compound was evaluated for the measurement of Cerebral blood flow in thalamus of Rats (hypercapnia); type: functional
Rattus norvegicus [8] = species on record: Rattus norvegicus; test: Compound was evaluated for the measurement of Cerebral blood flow in parietal cortex of Rats (normocapnia); type: functional
Rattus norvegicus [9] = species on record: Rattus norvegicus; test: Compound was evaluated for the measurement of Cerebral blood flow in habenula of Rats (normocapnia); type: functional
Rattus norvegicus [10] = species on record: Rattus norvegicus; test: Compound was evaluated for the measurement of Cerebral blood flow in inferior coliculus of Rats (normocapnia); type: functional, Brain
Rattus norvegicus [11] = species on record: Rattus norvegicus; test: Compound was evaluated for the measurement of Cerebral blood flow in parietal cortex of Rats (hypercapnia); type: functional
Rattus norvegicus [12] = species on record: Rattus norvegicus; test: Compound was evaluated for the measurement of Cerebral blood flow in visual cortex of Rats (normocapnia); type: functional
Rattus norvegicus [13] = species on record: Rattus norvegicus; test: Compound was evaluated for the measurement of Cerebral blood flow in nucleus accumbens of Rats (normocapnia); type: functional, Brain
Rattus norvegicus [14] = species on record: Rattus norvegicus; test: Compound was evaluated for the measurement of Cerebral blood flow in septal nucleus of Rats (hypercapnia); type: functional, Brain
Rattus norvegicus [15] = species on record: Rattus norvegicus; test: Compound was evaluated for the measurement of Cerebral blood flow in hypothalamus of Rats (normocapnia); type: functional
Rattus norvegicus [16] = species on record: Rattus norvegicus; test: Compound was evaluated for the measurement of Cerebral blood flow in sensorimotor cortex of Rats (hypercapnia); type: functional, Brain
Rattus norvegicus [17] = species on record: Rattus norvegicus; test: Compound was evaluated for the measurement of Cerebral blood flow in auditory cortex of Rats (normocapnia); type: functional
Rattus norvegicus [18] = species on record: Rattus norvegicus; test: Compound was evaluated for the measurement of Cerebral blood flow in thalamus of Rats (normocapnia); type: functional
Rattus norvegicus [19] = species on record: Rattus norvegicus; test: Compound was evaluated for the measurement of Cerebral blood flow in sensorimotor cortex of Rats (normocapnia); type: functional, Brain
Rattus norvegicus [20] = species on record: Rattus norvegicus; test: Compound was evaluated for the measurement of Cerebral blood flow in habenula of Rats (hypercapnia); type: functional
Rattus norvegicus [21] = species on record: Rattus norvegicus; test: Compound was evaluated for the measurement of Cerebral blood flow in superior coliculus of Rats (normocapnia); type: functional, Brain
Rattus norvegicus [22] = species on record: Rattus norvegicus; test: Compound was evaluated for the measurement of Cerebral blood flow in caudoputamen of Rats (normocapnia); type: functional, Brain
Rattus norvegicus [23] = species on record: Rattus norvegicus; test: Compound was evaluated for the measurement of Cerebral blood flow in cingulate cortex of Rats (hypercapnia); type: functional, Brain
Rattus norvegicus [24] = species on record: Rattus norvegicus; test: Compound was evaluated for the measurement of Cerebral blood flow in nucleus ruber of Rats (hypercapnia); type: functional, Brain
Rattus norvegicus [25] = species on record: Rattus norvegicus; test: Compound was evaluated for the measurement of Cerebral blood flow in medial geniculate body of Rats (normocapnia); type: functional
Rattus norvegicus [26] = species on record: Rattus norvegicus; test: Compound was evaluated for the measurement of Cerebral blood flow in lateral geniculate body of Rats (hypercapnia); type: functional
Rattus norvegicus [27] = species on record: Rattus norvegicus; test: Compound was evaluated for the measurement of Cerebral blood flow in piriform cortex of Rats (normocapnia); type: functional
Rattus norvegicus [28] = species on record: Rattus norvegicus; test: Compound was evaluated for the measurement of Cerebral blood flow in visual cortex of Rats (hypercapnia); type: functional
Rattus norvegicus [29] = species on record: Rattus norvegicus; test: Compound was evaluated for the measurement of Cerebral blood flow in piriform cortex of Rats (hypercapnia); type: functional
Rattus norvegicus [30] = species on record: Rattus norvegicus; test: Compound was evaluated for the measurement of Cerebral blood flow in cingulate cortex of Rats (normocapnia); type: functional, Brain
Rattus norvegicus [31] = species on record: Rattus norvegicus; test: Compound was evaluated for the measurement of Cerebral blood flow in hippocampus cortex of Rats (normocapnia); type: functional
Rattus norvegicus [32] = species on record: Rattus norvegicus; test: Compound was evaluated for the measurement of Cerebral blood flow in caudoputamen of Rats ((hypercapnia); type: functional, Brain
Rattus norvegicus [33] = species on record: Rattus norvegicus; test: Compound was evaluated for the measurement of Cerebral blood flow in amygdala of Rats (hypercapnia); type: functional
Rattus norvegicus [34] = species on record: Rattus norvegicus; test: Compound was evaluated for the measurement of Cerebral blood flow in frontal cortex of Rats (normocapnia); type: functional
Rattus norvegicus [35] = species on record: Rattus norvegicus; test: Compound was evaluated for the measurement of Cerebral blood flow in cerebellum of Rats (normocapnia); type: functional
Rattus norvegicus [36] = species on record: Rattus norvegicus; test: Compound was evaluated for the measurement of Cerebral blood flow in cerebellum of Rats (hypercapnia); type: functional
Rattus norvegicus [37] = species on record: Rattus norvegicus; test: Compound was evaluated for the measurement of Cerebral blood flow in substantia nigra of Rats (normocapnia); type: functional
Rattus norvegicus [38] = species on record: Rattus norvegicus; test: Compound was evaluated for the measurement of Cerebral blood flow in globus pallidus of Rats (hypercapnia); type: functional
Rattus norvegicus [39] = species on record: Rattus norvegicus; test: Compound was evaluated for the measurement of Cerebral blood flow in hypothalamus of Rats (hypercapnia); type: functional
Rattus norvegicus [40] = species on record: Rattus norvegicus; test: Compound was evaluated for the measurement of Cerebral blood flow in nucleus accumbens of Rats (hypercapnia); type: functional, Brain
Rattus norvegicus [41] = species on record: Rattus norvegicus; test: Compound was evaluated for the measurement of Cerebral blood flow in amygdala of Rats (normocapnia); type: functional
Rattus norvegicus [42] = species on record: Rattus norvegicus; test: Compound was evaluated for the measurement of Cerebral blood flow in inferior coliculus of Rats (hypercapnia); type: functional, Brain
Rattus norvegicus [43] = species on record: Rattus norvegicus; test: Compound was evaluated for the measurement of Cerebral blood flow in frontal cortex of Rats (hypercapnia); type: functional
Rattus norvegicus [44] = species on record: Rattus norvegicus; test: Compound was evaluated for the measurement of Cerebral blood flow in lateral geniculate body of Rats (normocapnia); type: functional
Rattus norvegicus [45] = species on record: Rattus norvegicus; test: Compound was evaluated for the measurement of Cerebral blood flow in auditory cortex of Rats (hypercapnia); type: functional
Rattus norvegicus [46] = species on record: Rattus norvegicus; test: Compound was evaluated for the measurement of Cerebral blood flow in medial geniculate body of Rats (hypercapnia); type: functional

In the case of Cc1c(C(C)C)c(=O)n(-c2ccccc2)n1C [PROPYPHENAZONE], the Blood flow (Rattus norvegicus [1]) is reported as 1.36 100ml g-1 min-1, the Blood flow (Rattus norvegicus [2]) is reported as 4.66 100ml g-1 min-1 and the Blood flow (Rattus norvegicus [3]) is reported as 0.91 100ml g-1 min-1. The Blood flow (Rattus norvegicus [4]) was 2.77 100ml g-1 min-1, the Blood flow (Rattus norvegicus [5]) was 0.73 100ml g-1 min-1 and the Blood flow (Rattus norvegicus [6]) was 3.9 100ml g-1 min-1. For the same compound, the Blood flow (Rattus norvegicus [7]) was 6.84 100ml g-1 min-1, the Blood flow (Rattus norvegicus [8]) was 1.89 100ml g-1 min-1 and the Blood flow (Rattus norvegicus [9]) was 1.43 100ml g-1 min-1. For the same compound, the Blood flow (Rattus norvegicus [10]) was 1.99 100ml g-1 min-1, the Blood flow (Rattus norvegicus [11]) was 6.95 100ml g-1 min-1 and the Blood flow (Rattus norvegicus [12]) was 1.3 100ml g-1 min-1. For the same compound, the Blood flow (Rattus norvegicus [13]) was 1.45 100ml g-1 min-1, the Blood flow (Rattus norvegicus [14]) was 3.34 100ml g-1 min-1 and the Blood flow (Rattus norvegicus [15]) was 0.97 100ml g-1 min-1. The Blood flow (Rattus norvegicus [16]) was 7.24 100ml g-1 min-1, the Blood flow (Rattus norvegicus [17]) was 2.36 100ml g-1 min-1 and the Blood flow (Rattus norvegicus [18]) was 1.73 100ml g-1 min-1. For the same compound, the Blood flow (Rattus norvegicus [19]) was 1.91 100ml g-1 min-1, the Blood flow (Rattus norvegicus [20]) was 5.29 100ml g-1 min-1 and the Blood flow (Rattus norvegicus [21]) was 1.49 100ml g-1 min-1. The Blood flow (Rattus norvegicus [22]) was 1.35 100ml g-1 min-1, the Blood flow (Rattus norvegicus [23]) was 3.45 100ml g-1 min-1 and the Blood flow (Rattus norvegicus [24]) was 4.91 100ml g-1 min-1. For the same compound, the Blood flow (Rattus norvegicus [25]) was 2.18 100ml g-1 min-1, the Blood flow (Rattus norvegicus [26]) was 5.46 100ml g-1 min-1 and the Blood flow (Rattus norvegicus [27]) was 1.05 100ml g-1 min-1. The Blood flow (Rattus norvegicus [28]) was 4.97 100ml g-1 min-1, the Blood flow (Rattus norvegicus [29]) was 3.56 100ml g-1 min-1 and the Blood flow (Rattus norvegicus [30]) was 1.34 100ml g-1 min-1. For the same compound, the Blood flow (Rattus norvegicus [31]) was 0.87 100ml g-1 min-1, the Blood flow (Rattus norvegicus [32]) was 4.18 100ml g-1 min-1 and the Blood flow (Rattus norvegicus [33]) was 3.65 100ml g-1 min-1. For the same compound, the Blood flow (Rattus norvegicus [34]) was 2.26 100ml g-1 min-1, the Blood flow (Rattus norvegicus [35]) was 0.83 100ml g-1 min-1 and the Blood flow (Rattus norvegicus [36]) was 1.98 100ml g-1 min-1. The Blood flow (Rattus norvegicus [37]) was 1 100ml g-1 min-1, the Blood flow (Rattus norvegicus [38]) was 2.85 100ml g-1 min-1 and the Blood flow (Rattus norvegicus [39]) was 3.63 100ml g-1 min-1. The Blood flow (Rattus norvegicus [40]) was 5.49 100ml g-1 min-1, the Blood flow (Rattus norvegicus [41]) was 0.95 100ml g-1 min-1 and the Blood flow (Rattus norvegicus [42]) was 5.3 100ml g-1 min-1. The Blood flow (Rattus norvegicus [43]) was 5.34 100ml g-1 min-1, the Blood flow (Rattus norvegicus [44]) was 1.45 100ml g-1 min-1 and the Blood flow (Rattus norvegicus [45]) was 5.66 100ml g-1 min-1. The Blood flow (Rattus norvegicus [46]) was 6.94 100ml g-1 min-1.

With Cc1c(I)c(=O)n(-c2ccccc2)n1C [IODOANTIPYRINE] the Blood flow (Rattus norvegicus [1]) was 1.45 100ml g-1 min-1, the Blood flow (Rattus norvegicus [2]) was 3.78 100ml g-1 min-1 and the Blood flow (Rattus norvegicus [3]) was 0.85 100ml g-1 min-1. The Blood flow (Rattus norvegicus [4]) was 2.84 100ml g-1 min-1, the Blood flow (Rattus norvegicus [5]) was 0.66 100ml g-1 min-1 and the Blood flow (Rattus norvegicus [6]) was 3.21 100ml g-1 min-1. The Blood flow (Rattus norvegicus [7]) was 4.77 100ml g-1 min-1, the Blood flow (Rattus norvegicus [8]) was 1.89 100ml g-1 min-1 and the Blood flow (Rattus norvegicus [9]) was 1.64 100ml g-1 min-1. The Blood flow (Rattus norvegicus [10]) was 1.99 100ml g-1 min-1, the Blood flow (Rattus norvegicus [11]) was 5.5 100ml g-1 min-1 and the Blood flow (Rattus norvegicus [12]) was 1.52 100ml g-1 min-1. The Blood flow (Rattus norvegicus [13]) was 1.5 100ml g-1 min-1, the Blood flow (Rattus norvegicus [14]) was 3.21 100ml g-1 min-1 and the Blood flow (Rattus norvegicus [15]) was 1.05 100ml g-1 min-1. For the same compound, the Blood flow (Rattus norvegicus [16]) was 5.75 100ml g-1 min-1, the Blood flow (Rattus norvegicus [17]) was 3.12 100ml g-1 min-1 and the Blood flow (Rattus norvegicus [18]) was 1.63 100ml g-1 min-1. For the same compound, the Blood flow (Rattus norvegicus [19]) was 1.98 100ml g-1 min-1, the Blood flow (Rattus norvegicus [20]) was 5.23 100ml g-1 min-1 and the Blood flow (Rattus norvegicus [21]) was 1.48 100ml g-1 min-1. For the same compound, the Blood flow (Rattus norvegicus [22]) was 1.41 100ml g-1 min-1, the Blood flow (Rattus norvegicus [23]) was 3.9 100ml g-1 min-1 and the Blood flow (Rattus norvegicus [24]) was 3.49 100ml g-1 min-1. For the same compound, the Blood flow (Rattus norvegicus [25]) was 1.82 100ml g-1 min-1, the Blood flow (Rattus norvegicus [26]) was 3.97 100ml g-1 min-1 and the Blood flow (Rattus norvegicus [27]) was 1.12 100ml g-1 min-1. For the same compound, the Blood flow (Rattus norvegicus [28]) was 4.08 100ml g-1 min-1, the Blood flow (Rattus norvegicus [29]) was 3.11 100ml g-1 min-1 and the Blood flow (Rattus norvegicus [30]) was 1.33 100ml g-1 min-1. The Blood flow (Rattus norvegicus [31]) was 0.87 100ml g-1 min-1, the Blood flow (Rattus norvegicus [32]) was 3.77 100ml g-1 min-1 and the Blood flow (Rattus norvegicus [33]) was 3.09 100ml g-1 min-1. The Blood flow (Rattus norvegicus [34]) was 2.03 100ml g-1 min-1, the Blood flow (Rattus norvegicus [35]) was 0.82 100ml g-1 min-1 and the Blood flow (Rattus norvegicus [36]) was 2.7 100ml g-1 min-1. For the same compound, the Blood flow (Rattus norvegicus [37]) was 1.01 100ml g-1 min-1, the Blood flow (Rattus norvegicus [38]) was 2.61 100ml g-1 min-1 and the Blood flow (Rattus norvegicus [39]) was 3.14 100ml g-1 min-1. The Blood flow (Rattus norvegicus [40]) was 4.18 100ml g-1 min-1, the Blood flow (Rattus norvegicus [41]) was 1.06 100ml g-1 min-1 and the Blood flow (Rattus norvegicus [42]) was 4.76 100ml g-1 min-1. For the same compound, the Blood flow (Rattus norvegicus [43]) was 4.67 100ml g-1 min-1, the Blood flow (Rattus norvegicus [44]) was 1.4 100ml g-1 min-1 and the Blood flow (Rattus norvegicus [45]) was 5.79 100ml g-1 min-1. The Blood flow (Rattus norvegicus [46]) was 5.18 100ml g-1 min-1.
